#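 Test compounds were applied to cells in 96-well plates for 48 hours at 5 doses. The concentration for 50% growth inhibition is given as GI50. TGI: concentration producing complete growth inhibition.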
# Legend:
# Experiment in all cases: inhibition of tumour cell growth, NCI panel, 48 h
# SK-OV-3 ovarian = test system: SK-OV-3 ovarian
# HCT-116 colon = test system: HCT-116 colon
# LOX IMVI melanoma = test system: LOX IMVI melanoma
# SNB-19 CNS = test system: SNB-19 CNS
# BT-549 breast = test system: BT-549 breast
# 786-0 renal = test system: 786-0 renal
# NCI-H23 lung = test system: NCI-H23 lung
# TK-10 renal = test system: TK-10 renal
# OVCAR-8 ovarian = test system: OVCAR-8 ovarian
# HOP-92 NSCLC = test system: HOP-92 NSCLC
# EKVX NSCLC = test system: EKVX NSCLC
# CCRF-CEM leukemia = test system: CCRF-CEM leukemia
# A549 NSCLC = test system: A549 NSCLC
# UACC-257 melanoma = test system: UACC-257 melanoma
# HCC-2998 colon = test system: HCC-2998 colon
# NCI-H226 lung = test system: NCI-H226 lung
# HT29 colon = test system: HT29 colon
# U251 CNS = test system: U251 CNS
# IGROV1 ovarian = test system: IGROV1 ovarian
# UO-31 renal = test system: UO-31 renal
# NCI-H522 lung = test system: NCI-H522 lung
# PC-3 prostate = test system: PC-3 prostate
# DU-145 prostate = test system: DU-145 prostate
# T-47D breast = test system: T-47D breast
# SK-MEL-5 melanoma = test system: SK-MEL-5 melanoma
# MDA-MB-231 breast = test system: MDA-MB-231 breast
# MDA-MB-435 = test system: MDA-MB-435
# HOP-62 NSCLC = test system: HOP-62 NSCLC
# SW-620 colon = test system: SW-620 colon
# OVCAR-3 ovarian = test system: OVCAR-3 ovarian
# RXF 393 renal = test system: RXF 393 renal
# HL-60(TB) leukemia = test system: HL-60(TB) leukemia
# M14 melanoma = test system: M14 melanoma
# SNB-75 CNS = test system: SNB-75 CNS
# NCI-H460 lung = test system: NCI-H460 lung
# OVCAR-4 ovarian = test system: OVCAR-4 ovarian
# A498 renal = test system: A498 renal
# HS 578T breast = test system: HS 578T breast
# MCF7 breast = test system: MCF7 breast
# SF-268 CNS = test system: SF-268 CNS
# SR leukemia = test system: SR leukemia
# SN12C renal = test system: SN12C renal
# SK-MEL-28 melanoma = test system: SK-MEL-28 melanoma
# MOLT-4 leukemia = test system: MOLT-4 leukemia
# SF-295 CNS = test system: SF-295 CNS
# OVCAR-5 ovarian = test system: OVCAR-5 ovarian
# HCT-15 colon = test system: HCT-15 colon
# UACC-62 melanoma = test system: UACC-62 melanoma
# MALME-3M melanoma = test system: MALME-3M melanoma
# SK-MEL-2 melanoma = test system: SK-MEL-2 melanoma
# KM12 colon = test system: KM12 colon
# SF-539 CNS = test system: SF-539 CNS
# NCI/ADR-RES ovarian = test system: NCI/ADR-RES ovarian
# RPMI-8226 leukemia = test system: RPMI-8226 leukemia
# ACHN renal = test system: ACHN renal
# K-562 leukemia = test system: K-562 leukemia
smiles,measurement,setting,value
COc1ccc(C2=NN(C(=O)c3cc(OC)c(OC)c(OC)c3)C(c3ccc(N(C)C)cc3)C2)cc1 (stereo not drawn),GI50,SK-OV-3 ovarian,0.463 µM
same,TGI,SK-OV-3 ovarian,58.2 µM
same,GI50,HCT-116 colon,0.439 µM
same,GI50,LOX IMVI melanoma,0.549 µM
same,TGI,LOX IMVI melanoma,> 100 µM
same,GI50,SNB-19 CNS,1.84 µM
same,TGI,SNB-19 CNS,> 100 µM
same,GI50,BT-549 breast,1.58 µM
same,TGI,BT-549 breast,> 100 µM
same,GI50,786-0 renal,0.295 µM
same,GI50,NCI-H23 lung,1 µM
same,TGI,NCI-H23 lung,> 100 µM
same,GI50,TK-10 renal,0.682 µM
same,TGI,TK-10 renal,> 100 µM
same,GI50,OVCAR-8 ovarian,2.42 µM
same,TGI,OVCAR-8 ovarian,> 100 µM
same,GI50,HOP-92 NSCLC,0.886 µM
same,TGI,HOP-92 NSCLC,> 100 µM
same,GI50,EKVX NSCLC,1.43 µM
same,TGI,EKVX NSCLC,> 100 µM
same,GI50,CCRF-CEM leukemia,1.8 µM
same,TGI,CCRF-CEM leukemia,> 27.1 µM
same,GI50,A549 NSCLC,1.12 µM
same,TGI,A549 NSCLC,> 100 µM
same,GI50,UACC-257 melanoma,97.6 µM
same,TGI,UACC-257 melanoma,> 100 µM
same,GI50,HCC-2998 colon,0.357 µM
same,TGI,HCC-2998 colon,2.69 µM
same,GI50,NCI-H226 lung,1.28 µM
same,TGI,NCI-H226 lung,> 100 µM
same,GI50,HT29 colon,0.395 µM
same,GI50,U251 CNS,0.473 µM
same,TGI,U251 CNS,> 100 µM
same,GI50,IGROV1 ovarian,0.739 µM
same,TGI,IGROV1 ovarian,> 100 µM
same,GI50,UO-31 renal,0.558 µM
same,TGI,UO-31 renal,> 100 µM
same,GI50,NCI-H522 lung,0.352 µM
same,GI50,PC-3 prostate,0.529 µM
same,TGI,PC-3 prostate,> 100 µM
same,GI50,DU-145 prostate,1.74 µM
same,TGI,DU-145 prostate,> 23.7 µM
same,GI50,T-47D breast,0.535 µM
same,TGI,T-47D breast,> 100 µM
same,GI50,SK-MEL-5 melanoma,0.424 µM
same,TGI,SK-MEL-5 melanoma,4.88 µM
same,GI50,MDA-MB-231 breast,1.72 µM
same,TGI,MDA-MB-231 breast,8.75 µM
same,GI50,MDA-MB-435,0.205 µM
same,TGI,MDA-MB-435,0.478 µM
same,GI50,HOP-62 NSCLC,0.57 µM
same,GI50,SW-620 colon,0.427 µM
same,TGI,SW-620 colon,> 100 µM
same,GI50,OVCAR-3 ovarian,0.284 µM
same,TGI,OVCAR-3 ovarian,4.7 µM
same,GI50,RXF 393 renal,0.252 µM
same,TGI,RXF 393 renal,0.723 µM
same,GI50,HL-60(TB) leukemia,0.499 µM
same,TGI,HL-60(TB) leukemia,2.87 µM
same,GI50,M14 melanoma,0.496 µM
same,TGI,M14 melanoma,> 21 µM
same,GI50,SNB-75 CNS,0.346 µM
same,TGI,SNB-75 CNS,8.72 µM
same,GI50,NCI-H460 lung,0.397 µM
same,GI50,OVCAR-4 ovarian,0.548 µM
same,TGI,OVCAR-4 ovarian,> 100 µM
same,GI50,A498 renal,0.337 µM
same,TGI,A498 renal,9.23 µM
same,GI50,HS 578T breast,0.266 µM
same,TGI,HS 578T breast,1.56 µM
same,GI50,MCF7 breast,0.318 µM
same,GI50,SF-268 CNS,0.736 µM
same,TGI,SF-268 CNS,> 100 µM
same,GI50,SR leukemia,0.426 µM
same,GI50,SN12C renal,2.6 µM
same,TGI,SN12C renal,> 100 µM
same,GI50,SK-MEL-28 melanoma,0.511 µM
same,TGI,SK-MEL-28 melanoma,> 59.5 µM
same,GI50,MOLT-4 leukemia,3.87 µM
same,TGI,MOLT-4 leukemia,> 100 µM
same,GI50,SF-295 CNS,0.339 µM
same,TGI,SF-295 CNS,40.4 µM
same,GI50,OVCAR-5 ovarian,0.732 µM
same,TGI,OVCAR-5 ovarian,> 100 µM
same,GI50,HCT-15 colon,0.426 µM
same,TGI,HCT-15 colon,> 100 µM
same,GI50,UACC-62 melanoma,0.496 µM
same,TGI,UACC-62 melanoma,> 100 µM
same,GI50,MALME-3M melanoma,41.6 µM
same,TGI,MALME-3M melanoma,> 100 µM
same,GI50,SK-MEL-2 melanoma,83.5 µM
same,TGI,SK-MEL-2 melanoma,> 100 µM
same,GI50,KM12 colon,0.46 µM
same,TGI,KM12 colon,> 100 µM
same,GI50,SF-539 CNS,0.294 µM
same,TGI,SF-539 CNS,1.52 µM
same,GI50,NCI/ADR-RES ovarian,0.379 µM
same,GI50,RPMI-8226 leukemia,0.663 µM
same,TGI,RPMI-8226 leukemia,> 20 µM
same,GI50,ACHN renal,0.622 µM
same,TGI,ACHN renal,> 100 µM
same,GI50,K-562 leukemia,0.551 µM
same,TGI,K-562 leukemia,> 100 µM

# Source: PubChem BioAssay (NCI)
